Reference: patent publication US8658604B2, “Template-fixed beta-hairpin peptidomimetics with protease inhibitory activity” (Polyphor Ltd, priority 2005, dated 2014)
Where a SMILES comes first, the peptide text is derived from it.

Columns and labels:
[1] = biological target: T1, Elastase from human neutrophils (Homo sapiens, UniProt P08246); assay: Enzymatic assay, elastase; conditions: Elastase IC50
T1 sequence (P08246 30-267): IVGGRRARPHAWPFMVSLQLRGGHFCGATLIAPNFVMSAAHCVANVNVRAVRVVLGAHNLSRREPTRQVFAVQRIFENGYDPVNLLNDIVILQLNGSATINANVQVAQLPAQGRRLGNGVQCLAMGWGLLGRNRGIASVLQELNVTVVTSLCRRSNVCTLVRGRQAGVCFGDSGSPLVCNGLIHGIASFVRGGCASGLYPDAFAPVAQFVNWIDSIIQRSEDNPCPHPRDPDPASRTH

[2] = biological target: Chymotrypsin, from human pancreas (Homo sapiens, UniProt P17538); assay: Enzymatic assay, chymotrypsin
[3] = biological target: Thrombin, from Human Plasma (Homo sapiens, UniProt P00734); assay: Enzymatic assay, thrombin
[4] = biological target: Coagulation Factor Xa, from uman plasma (Homo sapiens, UniProt P00742); assay: Enzymatic assay, coagulation factor Xa
Chymase, from human skin = biological target: T2, Chymase, from human skin (Homo sapiens, UniProt P23946); assay: Enzymatic assay, chymase
T2 sequence (P23946 22-247): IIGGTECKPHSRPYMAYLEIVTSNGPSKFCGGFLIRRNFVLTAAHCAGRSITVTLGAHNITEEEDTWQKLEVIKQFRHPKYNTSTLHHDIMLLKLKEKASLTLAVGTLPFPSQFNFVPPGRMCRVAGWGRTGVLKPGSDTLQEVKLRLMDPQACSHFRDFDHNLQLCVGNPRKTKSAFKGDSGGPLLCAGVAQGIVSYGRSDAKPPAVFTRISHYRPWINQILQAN

HELA cells (Acc57) = assay: Cytotoxicity assay (MTT reduction), HELA cells; assay type: cell-based; conditions: Hela cells
Method in brief: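 HeLa cells were grown for 24 h, then exposed to peptides at 12.5, 25 and 50 μM in triplicate for 48 h at 37 °C. MTT reduction was read at 595 nm and growth % calculated relative to time-zero wells. LC50 interpolated by linear trend at −50% growth, GI50 at 50%.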

[5] = biological target: T3, CathepsinG, from human neutrophils (Homo sapiens, UniProt P08311); assay: Enzymatic assay, cathepsin G; conditions: Cathepsin G IC50
T3 sequence (P08311 21-244): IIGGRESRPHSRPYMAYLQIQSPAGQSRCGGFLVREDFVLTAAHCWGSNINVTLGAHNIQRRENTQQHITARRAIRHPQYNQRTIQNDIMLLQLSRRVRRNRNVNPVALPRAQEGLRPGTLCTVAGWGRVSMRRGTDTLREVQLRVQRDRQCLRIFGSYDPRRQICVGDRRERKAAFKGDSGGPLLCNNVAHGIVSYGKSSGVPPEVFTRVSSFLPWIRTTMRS

[6] = tested on: Tryptase, from human lung; assay: Enzymatic assay, tryptase; conditions: at 100 μM
[7] = biological target: Urokinase from human urine (Homo sapiens, UniProt P00749); assay: Enzymatic assay, urokinase
[8] = biological target: Trypsin, from human pancreas (Homo sapiens, UniProt P07477); assay: Enzymatic assay, trypsin; conditions: at 100 μM

Sequence of Coagulation Factor Xa, from uman plasma (P00742 235-488 limits assumed): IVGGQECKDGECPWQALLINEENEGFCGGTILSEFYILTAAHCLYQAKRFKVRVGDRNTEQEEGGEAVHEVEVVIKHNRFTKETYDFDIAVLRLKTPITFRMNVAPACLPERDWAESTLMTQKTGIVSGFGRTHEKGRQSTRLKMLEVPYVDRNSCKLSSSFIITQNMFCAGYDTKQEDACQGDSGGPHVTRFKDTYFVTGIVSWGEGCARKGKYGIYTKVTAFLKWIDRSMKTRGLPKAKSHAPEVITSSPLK
Sequence of Coagulation Factor Xa, from uman plasma (P00742 41-179 limits assumed): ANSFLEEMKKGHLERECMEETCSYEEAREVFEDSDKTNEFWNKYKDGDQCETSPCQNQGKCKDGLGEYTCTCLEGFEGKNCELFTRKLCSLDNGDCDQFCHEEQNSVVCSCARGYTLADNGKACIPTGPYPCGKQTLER
Sequence of Chymotrypsin, from human pancreas (P17538 19-263): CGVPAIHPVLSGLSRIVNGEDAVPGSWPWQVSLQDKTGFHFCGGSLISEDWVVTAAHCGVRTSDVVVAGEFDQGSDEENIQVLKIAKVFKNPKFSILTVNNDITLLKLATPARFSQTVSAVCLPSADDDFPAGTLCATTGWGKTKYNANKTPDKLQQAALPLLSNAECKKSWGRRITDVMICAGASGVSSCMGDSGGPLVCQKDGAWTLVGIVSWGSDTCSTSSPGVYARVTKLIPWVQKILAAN

## CCCC[C@@H]1NC(=O)[C@@H]2CCCN2C(=O)[C@H]2CCCN2C(=O)[C@H](Cc2ccccc2Cl)NC(=O)[C@@H]2CSSC[C@H](NC1=O)C(=O)N[C@@H]([C@@H](C)O)C(=O)N[C@@H](C)C(=O)N[C@@H](CO)C(=O)N[C@@H]([C@@H](C)CC)C(=O)N1CCC[C@H]1C(=O)N1CCC[C@H]1C(=O)N[C@@H](CCC(N)=O)C(=O)N2 [Ex. 96] (HELM PEPTIDE1{[Nle].C.T.A.S.I.P.P.Q.C.[O=C([C@H](Cc1ccccc1Cl)N[*:1])[*:2]].[dP].P}$PEPTIDE1,PEPTIDE1,2:R3-10:R3|PEPTIDE1,PEPTIDE1,1:R1-13:R2$$$V2.0)
[1]
  IC50: 0.015 µM
[2]
  IC50: 15.4 µM
[3]
  Thrombin at 100 μM %: 3.6%
[4]
  FXa at 100 μM %: 0%
Chymase, from human skin
  Chymase at 100 μM %: 0%
HELA cells (Acc57)
  Cytotoxicity LC50/GI50 Hela cells: 52 µM
[5]
  IC50: 21.2 µM
[6]
  Tryptase at 100 μM %: 0%
[7]
  Urokinase at 100 μM %: 6.2%
[8]
  Trypsin at 100 μM %: 7.5%

## CCCC[C@@H]1NC(=O)[C@@H]2CCCN2C(=O)[C@H]2CCCN2C(=O)[C@H](CC2CCCCC2)NC(=O)[C@@H]2CSSC[C@H](NC1=O)C(=O)N[C@@H]([C@@H](C)O)C(=O)N[C@@H](C)C(=O)N[C@@H](CO)C(=O)N[C@@H]([C@@H](C)CC)C(=O)N1CCC[C@H]1C(=O)N1CCC[C@H]1C(=O)N[C@@H](CCC(N)=O)C(=O)N2 [Ex. 97] (HELM PEPTIDE1{[Nle].C.T.A.S.I.P.P.Q.C.[Cha].[dP].P}$PEPTIDE1,PEPTIDE1,2:R3-10:R3|PEPTIDE1,PEPTIDE1,1:R1-13:R2$$$V2.0)
[1]
  IC50: 0.024 µM
[2]
  IC50: 77.4 µM
[3]
  Thrombin at 100 μM %: 11.6%
[4]
  FXa at 100 μM %: 4.8%
Chymase, from human skin
  Chymase at 100 μM %: 0%
HELA cells (Acc57)
  Cytotoxicity LC50/GI50 Hela cells: 100 µM
[5]
  IC50: > 100 µM
[6]
  Tryptase at 100 μM %: 0%
[7]
  Urokinase at 100 μM %: 11.9%
[8]
  Trypsin at 100 μM %: 9.5%

## CCCC[C@@H]1NC(=O)[C@@H]2CCCN2C(=O)[C@H]2CCCN2C(=O)[C@H](c2ccccc2)NC(=O)[C@@H]2CSSC[C@H](NC1=O)C(=O)N[C@@H]([C@@H](C)O)C(=O)N[C@@H](C)C(=O)N[C@@H](CO)C(=O)N[C@@H]([C@@H](C)CC)C(=O)N1CCC[C@H]1C(=O)N1CCC[C@H]1C(=O)N[C@@H](CCC(N)=O)C(=O)N2 [Ex. 98] (HELM PEPTIDE1{[Nle].C.T.A.S.I.P.P.Q.C.[Phg].[dP].P}$PEPTIDE1,PEPTIDE1,2:R3-10:R3|PEPTIDE1,PEPTIDE1,1:R1-13:R2$$$V2.0)
[1]
  IC50: 0.021 µM
[2]
  IC50: 38.8 µM
[3]
  Thrombin at 100 μM %: 5.2%
[4]
  FXa at 100 μM %: 0%
Chymase, from human skin
  Chymase at 100 μM %: 0%
HELA cells (Acc57)
  Cytotoxicity LC50/GI50 Hela cells: 78 µM
[5]
  IC50: > 100 µM
[6]
  Tryptase at 100 μM %: 0%
[7]
  Urokinase at 100 μM %: 0%
[8]
  Trypsin at 100 μM %: 0%

## CCCCCC[C@@H]1NC(=O)[C@@H]2CCCN2C(=O)[C@H]2CCCN2C(=O)[C@H](Cc2ccc(O)cc2)NC(=O)[C@@H]2CSSC[C@H](NC1=O)C(=O)N[C@@H]([C@@H](C)O)C(=O)N[C@@H](C)C(=O)N[C@@H](CO)C(=O)N[C@@H]([C@@H](C)CC)C(=O)N1CCC[C@H]1C(=O)N1CCC[C@H]1C(=O)N[C@@H](CCC(N)=O)C(=O)N2 [Ex. 99] (HELM PEPTIDE1{[CCCCCC[C@H](N[*:1])C(=O)[*:2]].C.T.A.S.I.P.P.Q.C.Y.[dP].P}$PEPTIDE1,PEPTIDE1,2:R3-10:R3|PEPTIDE1,PEPTIDE1,1:R1-13:R2$$$V2.0)
[1]
  IC50: 0.016 µM
[2]
  IC50: 8.56 µM
[3]
  Thrombin at 100 μM %: 0%
[4]
  FXa at 100 μM %: 0%
Chymase, from human skin
  Chymase at 100 μM %: 0%
HELA cells (Acc57)
  Cytotoxicity LC50/GI50 Hela cells: 58 µM
[5]
  IC50: 85.2 µM
[6]
  Tryptase at 100 μM %: 0%
[7]
  Urokinase at 100 μM %: 17.4%
[8]
  Trypsin at 100 μM %: 30.5%

## CCCCCCCC[C@@H]1NC(=O)[C@@H]2CCCN2C(=O)[C@H]2CCCN2C(=O)[C@H](Cc2ccc(O)cc2)NC(=O)[C@@H]2CSSC[C@H](NC1=O)C(=O)N[C@@H]([C@@H](C)O)C(=O)N[C@@H](C)C(=O)N[C@@H](CO)C(=O)N[C@@H]([C@@H](C)CC)C(=O)N1CCC[C@H]1C(=O)N1CCC[C@H]1C(=O)N[C@@H](CCC(N)=O)C(=O)N2 [Ex. 102] (HELM PEPTIDE1{[CCCCCCCC[C@H](N[*:1])C(=O)[*:2]].C.T.A.S.I.P.P.Q.C.Y.[dP].P}$PEPTIDE1,PEPTIDE1,2:R3-10:R3|PEPTIDE1,PEPTIDE1,1:R1-13:R2$$$V2.0)
[1]
  IC50: 0.013 µM
[2]
  IC50: 4.98 µM
[3]
  Thrombin at 100 μM %: 1.7%
[4]
  FXa at 100 μM %: 0%
Chymase, from human skin
  Chymase at 100 μM %: 0%
HELA cells (Acc57)
  Cytotoxicity LC50/GI50 Hela cells: 55 µM
[5]
  IC50: > 100 µM
[6]
  Tryptase at 100 μM %: 0%
[7]
  Urokinase at 100 μM %: 0.5%
[8]
  Trypsin at 100 μM %: 0%

## CC[C@H](C)[C@@H]1NC(=O)[C@H](CO)NC(=O)[C@H](C)NC(=O)[C@H]([C@@H](C)O)NC(=O)[C@@H]2CSSC[C@H](NC(=O)[C@H](CCC(N)=O)NC(=O)[C@@H]3CCCN3C(=O)[C@@H]3CCCN3C1=O)C(=O)N[C@@H](Cc1ccc(O)cc1)C(=O)N1CCC[C@@H]1C(=O)N1CCC[C@H]1C(=O)N[C@@H](CCc1ccccc1)C(=O)N2 [Ex. 103] (HELM PEPTIDE1{[O=C([C@H](CCc1ccccc1)N[*:1])[*:2]].C.T.A.S.I.P.P.Q.C.Y.[dP].P}$PEPTIDE1,PEPTIDE1,2:R3-10:R3|PEPTIDE1,PEPTIDE1,1:R1-13:R2$$$V2.0)
[1]
  IC50: 0.018 µM
[2]
  IC50: 4.31 µM
[3]
  Thrombin at 100 μM %: 10.2%
[4]
  FXa at 100 μM %: 3%
Chymase, from human skin
  Chymase at 100 μM %: 0%
HELA cells (Acc57)
  Cytotoxicity LC50/GI50 Hela cells: 47 µM
[5]
  IC50: > 100 µM
[6]
  Tryptase at 100 μM %: 0.6%
[7]
  Urokinase at 100 μM %: 9.6%
[8]
  Trypsin at 100 μM %: 6.4%

## CCCC[C@@H]1NC(=O)[C@H](Cc2ccccc2)NC(=O)[C@H]2CCCN2C(=O)[C@H](Cc2ccc(O)cc2)NC(=O)[C@@H]2CSSC[C@H](NC1=O)C(=O)N[C@@H]([C@@H](C)O)C(=O)N[C@@H](C)C(=O)N[C@@H](CO)C(=O)N[C@@H]([C@@H](C)CC)C(=O)N1CCC[C@H]1C(=O)N1CCC[C@H]1C(=O)N[C@@H](CCC(N)=O)C(=O)N2 [Ex. 122] (HELM PEPTIDE1{[Nle].C.T.A.S.I.P.P.Q.C.Y.[dP].F}$PEPTIDE1,PEPTIDE1,2:R3-10:R3|PEPTIDE1,PEPTIDE1,1:R1-13:R2$$$V2.0)
[1]
  IC50: 0.018 µM
[2]
  IC50: 58 µM
[3]
  Thrombin at 100 μM %: 0%
[4]
  FXa at 100 μM %: 19.6%
Chymase, from human skin
  Chymase at 100 μM %: 6.4%
HELA cells (Acc57)
  Cytotoxicity LC50/GI50 Hela cells: 29 µM
[5]
  IC50: 35.1 µM
[6]
  Tryptase at 100 μM %: 0.2%
[7]
  Urokinase at 100 μM %: 11.1%
[8]
  Trypsin at 100 μM %: 19%
